In ChEMBL document CHEMBL1697781, “Assessment of the health effects of chemicals in humans: II. Construction of an adverse effects database for QSAR modeling” (Curr Drug Discov Technol, 2004):

How the values were obtained:
Conditions in all cases: human
[1] = system: Hepatotoxicity; assay: FDA HLAED, liver enzyme composite activity
[2] = system: Hepatotoxicity; assay: FDA HLAED, alkaline phosphatase increase
[3] = system: Hepatotoxicity; assay: FDA HLAED, serum glutamic oxaloacetic transaminase (SGOT) increase
[4] = system: Hepatotoxicity; assay: FDA HLAED, serum glutamic pyruvic transaminase (SGPT) increase
[5] = system: Hepatotoxicity; assay: FDA HLAED, lactate dehydrogenase (LDH) increase
[6] = system: Hepatotoxicity; assay: FDA HLAED, gamma-glutamyl transferase (GGT) increase
Wherever GGT Increase - Index Value is given: reference of the scale not given here.
Wherever LDH Increase - Index Value is given: reference of the scale not given here.

## CC1(C)S[C@@H]2[C@H](NC(=O)[C@H](NC(=O)N3CCN(S(C)(=O)=O)C3=O)c3ccccc3)C(=O)N2[C@H]1C(=O)O [MEZLOCILLIN]
[1]; Liver
  Composite Activity - Active: 0
  Composite Activity - Marginal: 0
  Composite Activity - Score: Inactive
[2]
  Alkaline Phosphatase Increase - Activity Score: Inactive
  Alkaline Phosphatase Increase - Index Value: 1.9
  Alkaline Phosphatase Increase - Number of Reports: < 4
[3]
  SGOT Increase - Activity Score: Inactive
  SGOT Increase - Index Value: 0
  SGOT Increase - Number of Reports: < 4
[4]
  SGPT Increase - Activity Score: Inactive
  SGPT Increase - Index Value: 0
  SGPT Increase - Number of Reports: < 4
[5]
  LDH Increase - Activity Score: Inactive
  LDH Increase - Index Value: 0
  LDH Increase - Number of Reports: < 4
[6]
  GGT Increase - Activity Score: Inactive
  GGT Increase - Index Value: 0
  GGT Increase - Number of Reports: < 4

## Cc1ncc2n1-c1ccc(Cl)cc1C(c1ccccc1F)=NC2 [MIDAZOLAM]
[1]
  Composite Activity - Active: 0
  Composite Activity - Marginal: 0
  Composite Activity - Score: Inactive
[2]
  Alkaline Phosphatase Increase - Activity Score: Inactive
  Alkaline Phosphatase Increase - Index Value: 0.2
  Alkaline Phosphatase Increase - Number of Reports: < 4
[3]
  SGOT Increase - Activity Score: Inactive
  SGOT Increase - Index Value: 0.2
  SGOT Increase - Number of Reports: < 4
[4]
  SGPT Increase - Activity Score: Inactive
  SGPT Increase - Index Value: 0.2
  SGPT Increase - Number of Reports: < 4
[5]
  LDH Increase - Activity Score: Inactive
  LDH Increase - Index Value: 0
  LDH Increase - Number of Reports: < 4
[6]
  GGT Increase - Activity Score: Inactive
  GGT Increase - Index Value: 0
  GGT Increase - Number of Reports: < 4

## COc1ccc(OC)c(C(O)CNC(=O)CN)c1 (stereo unspecified) [MIDODRINE]
[1]
  Composite Activity - Active: 0
  Composite Activity - Marginal: 0
  Composite Activity - Score: Inactive
[2]
  Alkaline Phosphatase Increase - Activity Score: Inactive
  Alkaline Phosphatase Increase - Index Value: 0
  Alkaline Phosphatase Increase - Number of Reports: < 4
[3]
  SGOT Increase - Activity Score: Inactive
  SGOT Increase - Index Value: 0
  SGOT Increase - Number of Reports: < 4
[4]
  SGPT Increase - Activity Score: Inactive
  SGPT Increase - Index Value: 0
  SGPT Increase - Number of Reports: < 4
[5]
  LDH Increase - Activity Score: Inactive
  LDH Increase - Index Value: 0
  LDH Increase - Number of Reports: < 4
[6]
  GGT Increase - Activity Score: Inactive
  GGT Increase - Index Value: 0
  GGT Increase - Number of Reports: < 4

## Nc1cc(N2CCCCC2)nc(N)[n+]1[O-] [MINOXIDIL]
[1]
  Composite Activity - Active: 0
  Composite Activity - Marginal: 0
  Composite Activity - Score: Inactive
[2]
  Alkaline Phosphatase Increase - Activity Score: Inactive
  Alkaline Phosphatase Increase - Index Value: 0.7
  Alkaline Phosphatase Increase - Number of Reports: >= 4
[3]
  SGOT Increase - Activity Score: Inactive
  SGOT Increase - Index Value: 0.9
  SGOT Increase - Number of Reports: >= 4
[4]
  SGPT Increase - Activity Score: Inactive
  SGPT Increase - Index Value: 1.1
  SGPT Increase - Number of Reports: >= 4
[5]
  LDH Increase - Activity Score: Inactive
  LDH Increase - Index Value: 0
  LDH Increase - Number of Reports: < 4
[6]
  GGT Increase - Activity Score: Inactive
  GGT Increase - Index Value: 0.3
  GGT Increase - Number of Reports: < 4

## CN1CCN2c3ncccc3Cc3ccccc3C2C1 (stereo unspecified) [MIRTAZAPINE]
[1]
  Composite Activity - Active: 1
  Composite Activity - Marginal: 2
  Composite Activity - Score: Inactive
[2]
  Alkaline Phosphatase Increase - Activity Score: Inactive
  Alkaline Phosphatase Increase - Index Value: 0.9
  Alkaline Phosphatase Increase - Number of Reports: < 4
[3]
  SGOT Increase - Activity Score: Marginally Active
  SGOT Increase - Index Value: 3.6
  SGOT Increase - Number of Reports: >= 4
[4]
  SGPT Increase - Activity Score: Active
  SGPT Increase - Index Value: 6.4
  SGPT Increase - Number of Reports: >= 4
[5]
  LDH Increase - Activity Score: Inactive
  LDH Increase - Index Value: 0.9
  LDH Increase - Number of Reports: < 4
[6]
  GGT Increase - Activity Score: Marginally Active
  GGT Increase - Index Value: 3.6
  GGT Increase - Number of Reports: < 4

## CCCCC(C)(O)C/C=C/[C@H]1[C@H](O)CC(=O)[C@@H]1CCCCCCC(=O)OC (stereo partly specified) [MISOPROSTOL]
[1]
  Composite Activity - Active: 0
  Composite Activity - Marginal: 0
  Composite Activity - Score: Inactive
[2]
  Alkaline Phosphatase Increase - Activity Score: Inactive
  Alkaline Phosphatase Increase - Index Value: 0.8
  Alkaline Phosphatase Increase - Number of Reports: >= 4
[3]
  SGOT Increase - Activity Score: Inactive
  SGOT Increase - Index Value: 0.8
  SGOT Increase - Number of Reports: >= 4
[4]
  SGPT Increase - Activity Score: Inactive
  SGPT Increase - Index Value: 0.2
  SGPT Increase - Number of Reports: < 4
[5]
  LDH Increase - Activity Score: Inactive
  LDH Increase - Index Value: 0.5
  LDH Increase - Number of Reports: < 4
[6]
  GGT Increase - Activity Score: Inactive
  GGT Increase - Index Value: 0.5
  GGT Increase - Number of Reports: < 4

## O=C1c2c(O)ccc(O)c2C(=O)c2c(NCCNCCO)ccc(NCCNCCO)c21 [MITOXANTRONE]
[1]
  Composite Activity - Active: 1
  Composite Activity - Marginal: 0
  Composite Activity - Score: Inactive
[2]
  Alkaline Phosphatase Increase - Activity Score: Inactive
  Alkaline Phosphatase Increase - Index Value: 4.5
  Alkaline Phosphatase Increase - Number of Reports: < 4
[3]
  SGOT Increase - Activity Score: Active
  SGOT Increase - Index Value: 13.5
  SGOT Increase - Number of Reports: < 4
[4]
  SGPT Increase - Activity Score: Inactive
  SGPT Increase - Index Value: 4.5
  SGPT Increase - Number of Reports: < 4
[5]
  LDH Increase - Activity Score: Inactive
  LDH Increase - Index Value: 0
  LDH Increase - Number of Reports: < 4
[6]
  GGT Increase - Activity Score: Inactive
  GGT Increase - Index Value: 0
  GGT Increase - Number of Reports: < 4

## COc1cc2c(cc1OC)[C@@H](Cc1cc(OC)c(OC)c(OC)c1)[N+](C)(CCCOC(=O)CC/C=C/CCC(=O)OCCC[N+]1(C)CCc3cc(OC)c(OC)cc3[C@H]1Cc1cc(OC)c(OC)c(OC)c1)CC2.[Cl-].[Cl-] (stereo partly specified) [MIVACURIUM CHLORIDE]
[1]
  Composite Activity - Active: 0
  Composite Activity - Marginal: 0
  Composite Activity - Score: Inactive
[2]
  Alkaline Phosphatase Increase - Activity Score: Inactive
  Alkaline Phosphatase Increase - Index Value: 0
  Alkaline Phosphatase Increase - Number of Reports: < 4
[3]
  SGOT Increase - Activity Score: Inactive
  SGOT Increase - Index Value: 0
  SGOT Increase - Number of Reports: < 4
[4]
  SGPT Increase - Activity Score: Inactive
  SGPT Increase - Index Value: 0
  SGPT Increase - Number of Reports: < 4
[5]
  LDH Increase - Activity Score: Inactive
  LDH Increase - Index Value: 0
  LDH Increase - Number of Reports: < 4
[6]
  GGT Increase - Activity Score: Inactive
  GGT Increase - Index Value: 0
  GGT Increase - Number of Reports: < 4

## CCOC(=O)[C@H](CCc1ccccc1)N[C@@H](C)C(=O)N1Cc2cc(OC)c(OC)cc2C[C@H]1C(=O)O [MOEXIPRIL]
[1]
  Composite Activity - Active: 0
  Composite Activity - Marginal: 0
  Composite Activity - Score: Inactive
[2]
  Alkaline Phosphatase Increase - Activity Score: Inactive
  Alkaline Phosphatase Increase - Index Value: 0
  Alkaline Phosphatase Increase - Number of Reports: < 4
[3]
  SGOT Increase - Activity Score: Inactive
  SGOT Increase - Index Value: 1.3
  SGOT Increase - Number of Reports: < 4
[4]
  SGPT Increase - Activity Score: Inactive
  SGPT Increase - Index Value: 1.3
  SGPT Increase - Number of Reports: < 4
[5]
  LDH Increase - Activity Score: Inactive
  LDH Increase - Index Value: 0
  LDH Increase - Number of Reports: < 4
[6]
  GGT Increase - Activity Score: Inactive
  GGT Increase - Index Value: 0
  GGT Increase - Number of Reports: < 4

## C[C@@H]1C[C@H]2[C@@H]3CCC4=CC(=O)C=C[C@]4(C)[C@@]3(Cl)[C@@H](O)C[C@]2(C)[C@@]1(O)C(=O)CCl [MOMETASONE]
[1]
  Composite Activity - Active: 0
  Composite Activity - Marginal: 0
  Composite Activity - Score: Inactive
[2]
  Alkaline Phosphatase Increase - Activity Score: Inactive
  Alkaline Phosphatase Increase - Index Value: 0
  Alkaline Phosphatase Increase - Number of Reports: < 4
[3]
  SGOT Increase - Activity Score: Inactive
  SGOT Increase - Index Value: 0
  SGOT Increase - Number of Reports: < 4
[4]
  SGPT Increase - Activity Score: Inactive
  SGPT Increase - Index Value: 0
  SGPT Increase - Number of Reports: < 4
[5]
  LDH Increase - Activity Score: Inactive
  LDH Increase - Index Value: 0
  LDH Increase - Number of Reports: < 4
[6]
  GGT Increase - Activity Score: Inactive
  GGT Increase - Index Value: 0
  GGT Increase - Number of Reports: < 4

## CCOC(=O)Nc1ccc2c(c1)N(C(=O)CCN1CCOCC1)c1ccccc1S2 [MORICIZINE]
[1]
  Composite Activity - Active: 1
  Composite Activity - Marginal: 0
  Composite Activity - Score: Inactive
[2]
  Alkaline Phosphatase Increase - Activity Score: Inactive
  Alkaline Phosphatase Increase - Index Value: 3.4
  Alkaline Phosphatase Increase - Number of Reports: < 4
[3]
  SGOT Increase - Activity Score: Active
  SGOT Increase - Index Value: 13.7
  SGOT Increase - Number of Reports: >= 4
[4]
  SGPT Increase - Activity Score: Inactive
  SGPT Increase - Index Value: 3.4
  SGPT Increase - Number of Reports: < 4
[5]
  LDH Increase - Activity Score: Inactive
  LDH Increase - Index Value: 3.4
  LDH Increase - Number of Reports: < 4
[6]
  GGT Increase - Activity Score: Inactive
  GGT Increase - Index Value: 0
  GGT Increase - Number of Reports: < 4

## C/C(=C\C(=O)OCCCCCCCCC(=O)O)C[C@@H]1OC[C@H](C[C@@H]2O[C@H]2[C@@H](C)[C@H](C)O)[C@@H](O)[C@H]1O [MUPIROCIN]
[1]
  Composite Activity - Active: 0
  Composite Activity - Marginal: 0
  Composite Activity - Score: Inactive
[2]
  Alkaline Phosphatase Increase - Activity Score: Inactive
  Alkaline Phosphatase Increase - Index Value: 0
  Alkaline Phosphatase Increase - Number of Reports: < 4
[3]
  SGOT Increase - Activity Score: Inactive
  SGOT Increase - Index Value: 0
  SGOT Increase - Number of Reports: < 4
[4]
  SGPT Increase - Activity Score: Inactive
  SGPT Increase - Index Value: 0
  SGPT Increase - Number of Reports: < 4
[5]
  LDH Increase - Activity Score: Inactive
  LDH Increase - Index Value: 0
  LDH Increase - Number of Reports: < 4
[6]
  GGT Increase - Activity Score: Inactive
  GGT Increase - Index Value: 0
  GGT Increase - Number of Reports: < 4
